The structures appear in SMILES notation.

For 16 molecules, Kd results are on record in patent publication US9226929B2, “Pharmaceutically active disubstituted triazine derivatives” (Bayer Intellectual Property GMBH, priority 2011, dated 2016).

One assay deals with T1, CDK7/CyclinH/MAT1 (Homo sapiens, UniProt P50613).
T1 construct: His; purchased Carna Biosciences
Briefly: LanthaScreen Eu Kinase Binding Assay, CDK7. The note with it: tracer 236, read-out: CDK7 (activity range), Kd. How it is done:
(§1) This protocol describes how the LanthaScreen Eu Kinase Binding Assay was performed to determine dissociation constants (Kd) of compounds of general formula (I) and CDK/Cyclin complexes. The principle behind this assay is based upon the binding and displacement of an Alexa Fluor 647-labeled tracer, which binds to the active site of kinases. Binding of the tracer to the kinase is detected using a Eu-labeled antibody. Simultaneous binding of both the tracer and antibody to the kinase gives rise to a FRET-signal. Binding of an inhibitor to the kinase competes for binding with the tracer, resulting in a loss of FRET.
(§2) The compounds of general formula (I) summarized in Table 1 were diluted from a 10 mM DMSO stock solution 1:10 in a total volume of 15 μL DMSO. This compound predilution was then serial diluted 1:3 over 8 steps in DMSO and briefly spun down. Each compound solution was now diluted 1:33.33 in kinase buffer (HEPES: 20 mM, pH: 8.0; MgCl2: 10 mM; DTT: 1 mM; Brij-35: 0,01%), mixed thoroughly and spun down. For every sample, 5 μL of the diluted compound were mixed with 5 μL tracer working solution (e.g. 60 nM tracer 236 in kinase buffer for CDK2/Cyclin A) and 5 μL CDK/Cyclin/Anti-GST-AB-working solution (e.g. 15 nM CDK2/Cyclin A, 1:250 dilution of Anti-GST-AB in kinase buffer) in a well of a small volume 384 well plate (Corning Incorporated, Corning, N.Y., USA; order no. 3673). The tracer concentration was adjusted to its dissociation constant (Kd) for the CDK/Cyclin, which was 30 nM for CDK2/Cyclin A, CDK7/Cyclin H and CDK9/Cyclin T1, 20 nM for CDK8/Cyclin C, and 35 nM for CDK9/Cyclin K. For negative controls, in each well 5 μL of DMSO working solution (3% DMSO diluted in kinase buffer) was mixed with 5 μL Anti-GST-AB working solution (e.g. 1:250 dilution of Anti-GST-AB in kinase buffer for CDK2/Cyclin A) and 5 μL Tracer working solution (e.g. 60 nM Tracer 236 in kinase buffer for CDK2/Cyclin A). For positive controls, in each well 5 μL of DMSO working solution (3% DMSO diluted in kinase buffer) was mixed with 5 μL CDK/Cyclin/Anti-GST-AB-working solution: (e.g. 15 nM CDK2/Cyclin A, 1:250 dilution of Anti-GST-AB in kinase buffer) and 5 μL Tracer working solution (e.g. 60 nM Tracer 236 in kinase buffer for CDK2/Cyclin A). Positive and negative controls were calculated from at least 8 different sample wells. The 384 well plates were mixed in a Teleshaker plate mixer (Beckman Coulter, Brea, Calif., USA) at 2000 rpm for 40 sec, and incubated for 1 h at room temperature before reading. The FRET signal was measured at 340 nm excitation, 665 nm and 615 nm emission (for the kinase tracer and LanthaScreen Eu-AB, respectively) with an Envision spectrophotometer (Perkin Elmer, Waltham, Mass., USA) with […]. Kd values were determined from the sigmoidal dose response curves with the software Quattro Workflow (Quattro GmbH, Munich, Germany).

Another assay addresses T2, CDK9/Cyclin T1 (Homo sapiens, UniProt P50750).
T2 construct: His; purchased Invitrogen
Description: LanthaScreen Eu Kinase Binding Assay, CDK9/Cyclin T1. Particulars: tracer 236, read-out: CDK9/Cyclin T1 (activity range), Kd. As to the method:
as §1, §2

A further assay concerns the target T3, CDK2/CyclinA (Homo sapiens, UniProt P24941).
T3 construct: GST; purchased Proqinase
Briefly: LanthaScreen Eu Kinase Binding Assay, CDK2. Particulars: tracer 236, read-out: CDK2 (activity range), Kd. As to the method:
as §1, §2
For orientation: Time-resolved FRET reads energy transfer from a long-lived donor to a nearby acceptor.

The target in the next assay is T4, CDK9/Cyclin K (Homo sapiens, UniProt P50750).
T4 construct: His; purchased Invitrogen
Briefly: LanthaScreen Eu Kinase Binding Assay, CDK9/Cyclin K. The note with it: tracer 236, read-out: CDK9/Cyclin K (activity range), Kd. How it is done:
as §1, §2

T4 sequence (P50750 whole entry): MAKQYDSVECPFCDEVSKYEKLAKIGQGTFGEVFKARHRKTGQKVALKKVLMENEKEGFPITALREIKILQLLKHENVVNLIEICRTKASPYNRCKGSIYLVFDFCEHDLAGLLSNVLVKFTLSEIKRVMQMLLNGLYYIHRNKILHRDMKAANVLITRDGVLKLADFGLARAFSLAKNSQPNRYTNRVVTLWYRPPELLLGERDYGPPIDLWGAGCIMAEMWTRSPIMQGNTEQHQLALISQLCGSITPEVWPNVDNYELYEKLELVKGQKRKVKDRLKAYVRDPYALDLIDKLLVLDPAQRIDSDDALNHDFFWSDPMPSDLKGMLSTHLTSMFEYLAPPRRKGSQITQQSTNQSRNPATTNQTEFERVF
T4 sequence (O75909 1-357 isoform O75909-1 partner): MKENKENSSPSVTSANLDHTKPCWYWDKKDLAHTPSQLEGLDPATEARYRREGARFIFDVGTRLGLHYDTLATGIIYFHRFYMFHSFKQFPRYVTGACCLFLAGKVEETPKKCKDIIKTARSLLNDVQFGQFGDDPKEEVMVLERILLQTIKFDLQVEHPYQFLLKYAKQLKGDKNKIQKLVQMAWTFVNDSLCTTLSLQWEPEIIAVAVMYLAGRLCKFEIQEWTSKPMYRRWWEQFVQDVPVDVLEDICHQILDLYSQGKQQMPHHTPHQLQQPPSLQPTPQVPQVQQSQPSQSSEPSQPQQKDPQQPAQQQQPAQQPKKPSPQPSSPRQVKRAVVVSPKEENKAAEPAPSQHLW
T2 sequence (P50750 whole entry): as the sequence (P50750 whole entry) above
T2 sequence (O60563 whole entry partner): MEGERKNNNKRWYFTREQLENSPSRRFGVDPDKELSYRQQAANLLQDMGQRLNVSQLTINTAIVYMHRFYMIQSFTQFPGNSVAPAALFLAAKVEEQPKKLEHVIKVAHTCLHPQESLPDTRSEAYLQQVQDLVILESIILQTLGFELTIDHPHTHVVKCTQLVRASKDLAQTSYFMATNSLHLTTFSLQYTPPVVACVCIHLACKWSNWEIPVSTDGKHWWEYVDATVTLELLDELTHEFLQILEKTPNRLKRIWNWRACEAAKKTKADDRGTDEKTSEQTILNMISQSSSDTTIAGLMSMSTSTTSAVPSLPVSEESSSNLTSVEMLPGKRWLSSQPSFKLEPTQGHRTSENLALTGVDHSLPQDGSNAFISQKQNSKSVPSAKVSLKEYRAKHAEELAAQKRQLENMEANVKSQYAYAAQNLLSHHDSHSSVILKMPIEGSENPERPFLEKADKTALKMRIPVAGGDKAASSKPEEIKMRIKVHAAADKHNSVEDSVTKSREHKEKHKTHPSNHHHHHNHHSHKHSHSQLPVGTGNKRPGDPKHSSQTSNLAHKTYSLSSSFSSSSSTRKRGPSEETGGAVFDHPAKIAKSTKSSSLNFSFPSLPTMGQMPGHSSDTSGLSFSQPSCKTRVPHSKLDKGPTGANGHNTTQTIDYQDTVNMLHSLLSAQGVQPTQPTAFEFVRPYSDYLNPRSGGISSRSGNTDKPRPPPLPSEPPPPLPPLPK
T1 sequence (P50613 whole entry): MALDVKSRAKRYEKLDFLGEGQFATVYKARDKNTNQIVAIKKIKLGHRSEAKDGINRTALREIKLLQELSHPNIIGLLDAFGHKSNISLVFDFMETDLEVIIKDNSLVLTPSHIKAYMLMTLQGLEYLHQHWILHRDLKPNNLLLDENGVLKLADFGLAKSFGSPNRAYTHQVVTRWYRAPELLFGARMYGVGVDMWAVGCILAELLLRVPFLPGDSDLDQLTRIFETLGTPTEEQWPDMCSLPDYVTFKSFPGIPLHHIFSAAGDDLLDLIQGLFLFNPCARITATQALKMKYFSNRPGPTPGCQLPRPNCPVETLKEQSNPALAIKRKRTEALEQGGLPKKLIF
T1 sequence (P51946 whole entry partner): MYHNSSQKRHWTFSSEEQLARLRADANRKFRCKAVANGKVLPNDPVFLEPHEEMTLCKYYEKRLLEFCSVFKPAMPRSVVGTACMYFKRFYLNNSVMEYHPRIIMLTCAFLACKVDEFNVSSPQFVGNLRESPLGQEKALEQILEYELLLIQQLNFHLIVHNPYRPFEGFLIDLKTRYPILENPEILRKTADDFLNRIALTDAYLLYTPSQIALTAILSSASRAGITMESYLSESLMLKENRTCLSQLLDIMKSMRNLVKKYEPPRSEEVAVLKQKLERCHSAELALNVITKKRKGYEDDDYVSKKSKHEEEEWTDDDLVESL
T1 sequence (P51948 whole entry partner): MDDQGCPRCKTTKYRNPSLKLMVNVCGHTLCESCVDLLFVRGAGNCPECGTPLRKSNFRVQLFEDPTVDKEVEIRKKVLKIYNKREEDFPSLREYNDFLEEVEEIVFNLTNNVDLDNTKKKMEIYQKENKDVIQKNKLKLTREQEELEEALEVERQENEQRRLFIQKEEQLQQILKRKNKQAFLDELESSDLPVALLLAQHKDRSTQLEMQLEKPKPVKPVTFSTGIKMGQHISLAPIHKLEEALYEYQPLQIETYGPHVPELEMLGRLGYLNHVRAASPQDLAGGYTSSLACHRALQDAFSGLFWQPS

Turning to `NS(=O)(=O)Cc1cccc(Nc2ncnc(N3CCOCC3)n2)c1` [Compound B10, 3-[(4-(Morpholin-4-yl)-1,3,5-triazin-2-yl)amino]benzenemethane sulfonamide], the Kd fell in the range of 1 to 10 µM at CDK7/CyclinH/MAT1, 0.1 to 1 µM at CDK9/Cyclin T1, 1 to 10 µM on CDK2/CyclinA and 0.1 to 1 µM at CDK9/Cyclin K.

Consider `COC[C@@H]1CCCN1c1ncnc(Nc2cccc(CS(N)(=O)=O)c2)n1` [Compound B18, (S)-3-[(4-(2-(Methoxymethyl)pyrrolidin-1-yl)-1,3,5-triazin-2-yl)amino]benzenemethanesulfonamide], for which the Kd at CDK7/CyclinH/MAT1 was greater than 10 µM; on CDK9/Cyclin T1, 1 to 10 µM; on CDK2/CyclinA, greater than 10 µM; at CDK9/Cyclin K, greater than 10 µM.

Consider `NS(=O)(=O)Cc1cccc(Nc2ncnc(N3CCCc4ccccc43)n2)c1` [Compound B42, 3-[(4-(3,4-Dihydroquinolin-1(2H)-yl)-1,3,5-triazin-2-yl)amino]-benzenemethanesulfonamide], for which the Kd on CDK7/CyclinH/MAT1 was greater than 10 µM; at CDK9/Cyclin T1 it was less than 0.1 µM; on CDK2/CyclinA, 0.1 to 1 µM; on CDK9/Cyclin K it was less than 0.1 µM.

As to `NS(=O)(=O)Cc1cccc(Nc2ncnc(N3CCC[C@H]3CO)n2)c1` [Compound B25, (S)-3-[(4-(2-(Hydroxymethyl)pyrrolidin-1-yl)-1,3,5-triazin-2-yl)amino]-benzenemethanesulfonamide], the Kd on CDK7/CyclinH/MAT1 is greater than 10 µM; at CDK9/Cyclin T1, 1 to 10 µM; on CDK2/CyclinA, greater than 10 µM; on CDK9/Cyclin K, 1 to 10 µM.

For `NS(=O)(=O)Cc1cccc(Nc2ncnc(N3CCc4ccccc43)n2)c1` [Compound B52, 3-[(4-(Indolin-1-yl)-1,3,5-triazin-2-yl)amino]-benzenemethane sulfonamide], the Kd at CDK7/CyclinH/MAT1 was greater than 10 µM; on CDK9/Cyclin T1 it was less than 0.1 µM; at CDK2/CyclinA it was 0.1 to 1 µM; at CDK9/Cyclin K it was less than 0.1 µM.

For the molecule `COC[C@H]1CCN1c1ncnc(Nc2cccc(CS(N)(=O)=O)c2)n1` [Compound B35, (R)-3-[(4-(2-(Methoxymethyl)azetidin-1-yl)-1,3,5-triazin-2-yl)amino]-benzenemethanesulfonamide], the Kd is greater than 10 µM on CDK7/CyclinH/MAT1, 0.1 to 1 µM on CDK9/Cyclin T1, greater than 10 µM at CDK2/CyclinA and 1 to 10 µM at CDK9/Cyclin K.

`COC(=O)[C@H]1CCN1c1ncnc(Nc2cccc(CS(N)(=O)=O)c2)n1` [Compound B36, (R)-Methyl 1-[4-((3-(Sulfamoylmethyl)phenyl)amino)-1,3,5-triazin-2-yl]azetidine-2-carboxylate]: the figures for the Kd at CDK7/CyclinH/MAT1, at CDK9/Cyclin T1 and on CDK9/Cyclin K were greater than 10 µM, 1 to 10 µM and 1 to 10 µM, respectively.

On to `NS(=O)(=O)Cc1cccc(Nc2ncnc(N3CCC[C@H]3CN3CCCC3)n2)c1` [Compound B32, (S)-3-[(4-(2-((Pyrrolidin-1-yl)methyl)pyrrolidin-1-yl)-1,3,5-triazin-2-yl)amino]benzenemethanesulfonamide], for which the Kd at CDK7/CyclinH/MAT1, on CDK9/Cyclin T1 and at CDK9/Cyclin K was greater than 10 µM each time.

For the molecule `COC[C@H]1CCCCN1c1ncnc(Nc2cccc(CS(N)(=O)=O)c2)n1` [Compound B5, (R)-3-[(4-(2-Methoxymethylpiperidin-1-yl)-1,3,5-triazin-2-yl)amino]-benzenemethanesulfonamide], the Kd on CDK7/CyclinH/MAT1 was greater than 10 µM; on CDK9/Cyclin T1, 0.1 to 1 µM; on CDK2/CyclinA, greater than 10 µM; at CDK9/Cyclin K, 0.1 to 1 µM.

As for `NS(=O)(=O)Cc1cccc(Nc2ncnc(N3CCCC3Cc3ccccc3)n2)c1` (racemic) [Compound B26, rac-3-[(4-(2-Benzylpyrrolidin-1-yl)-1,3,5-triazin-2-yl)amino]-benzenemethanesulfonamide], the Kd at CDK7/CyclinH/MAT1 is greater than 10 µM; on CDK9/Cyclin T1, 0.1 to 1 µM; at CDK9/Cyclin K it was 0.1 to 1 µM.

Consider `NS(=O)(=O)Cc1cccc(Nc2ncnc(N3CCC[C@@H]3CNc3ccccc3)n2)c1` [Compound B29, (R)-3-[(4-(2-(Phenylamino-methyl)pyrrolidin-1-yl)-1,3,5-triazin-2-yl)amino]benzenemethanesulfonamide], for which the values for the Kd at CDK7/CyclinH/MAT1, at CDK9/Cyclin T1 and at CDK9/Cyclin K were greater than 10 µM, 1 to 10 µM and 1 to 10 µM, respectively.

Regarding `NS(=O)(=O)Cc1cccc(Nc2ncnc(N3CCC[C@@H]3CO)n2)c1` [Compound B24, (R)-3-[(4-(2-(Hydroxymethyl)pyrrolidin-1-yl)-1,3,5-triazin-2-yl)amino]-benzenemethanesulfonamide], the Kd at CDK7/CyclinH/MAT1 was greater than 10 µM; on CDK9/Cyclin T1, 1 to 10 µM; at CDK2/CyclinA, greater than 10 µM; on CDK9/Cyclin K, 1 to 10 µM.

Regarding `NS(=O)(=O)Cc1cccc(Nc2ncnc(N3CCCC3CCc3ccccc3)n2)c1` (racemic) [Compound B27, rac-3-[(4-(2-(2-Phenylethyl)pyrrolidin-1-yl)-1,3,5-triazin-2-yl)amino]-benzenemethanesulfonamide], the Kd at CDK7/CyclinH/MAT1 was greater than 10 µM; on CDK9/Cyclin T1, 1 to 10 µM; at CDK9/Cyclin K, 1 to 10 µM.

In the case of `COC[C@H]1CC[C@H](COC)N1c1ncnc(Nc2cccc(CS(N)(=O)=O)c2)n1` [Compound B19, 3-[(4-((2R,5R)-Bis(methoxymethyl)pyrrolidin-1-yl)-1,3,5-triazin-2-yl)amino]benzenemethanesulfonamide], the Kd at CDK7/CyclinH/MAT1, on CDK9/Cyclin T1 and on CDK9/Cyclin K was greater than 10 µM each time.

Take `NS(=O)(=O)Cc1cccc(Nc2ncnc(N3CCC3c3ccccc3)n2)c1` (racemic) [Compound B37, rac-3-[(4-(2-Phenylazetidin-1-yl)-1,3,5-triazin-2-yl)amino]-benzenemethanesulfonamide]: the Kd was greater than 10 µM on CDK7/CyclinH/MAT1, 0.1 to 1 µM on CDK9/Cyclin T1 and 0.1 to 1 µM at CDK9/Cyclin K.

Take `NS(=O)(=O)Cc1cccc(Nc2ncnc(N3CCC[C@@H]3CN3CCCC3)n2)c1` [Compound B31, (R)-3-[(4-(2-((Pyrrolidin-1-yl)methyl)pyrrolidin-1-yl)-1,3,5-triazin-2-yl)amino]benzenemethanesulfonamide]: the Kd is greater than 10 µM at CDK7/CyclinH/MAT1, 1 to 10 µM at CDK9/Cyclin T1, greater than 10 µM on CDK2/CyclinA and greater than 10 µM at CDK9/Cyclin K.
